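In this assay, cells in 96-well plates receive the compound at five concentrations for 48 hours. Endpoints are linearly interpolated between the surrounding concentrations. At the TGI there is no net growth.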
How the values were obtained:
Experiment in all cases: NCI tumour cell line growth inhibition, 48 h
OVCAR-4 ovarian = system: OVCAR-4 ovarian
SW-620 colon = system: SW-620 colon
HOP-62 NSCLC = system: HOP-62 NSCLC
NCI-H23 lung = system: NCI-H23 lung
U251 CNS = system: U251 CNS
OVCAR-8 ovarian = system: OVCAR-8 ovarian
A549 NSCLC = system: A549 NSCLC
HL-60(TB) leukemia = system: HL-60(TB) leukemia
MALME-3M melanoma = system: MALME-3M melanoma
MCF7 breast = system: MCF7 breast
SF-295 CNS = system: SF-295 CNS
M14 melanoma = system: M14 melanoma
SNB-75 CNS = system: SNB-75 CNS
K-562 leukemia = system: K-562 leukemia
NCI-H226 lung = system: NCI-H226 lung
SF-268 CNS = system: SF-268 CNS
NCI/ADR-RES ovarian = system: NCI/ADR-RES ovarian

SMILES | TGI (OVCAR-4 ovarian) | TGI (SW-620 colon) | TGI (HOP-62 NSCLC) | TGI (NCI-H23 lung) | TGI (U251 CNS) | TGI (OVCAR-8 ovarian) | TGI (A549 NSCLC) | TGI (HL-60(TB) leukemia) | TGI (MALME-3M melanoma) | TGI (MCF7 breast) | TGI (SF-295 CNS) | TGI (M14 melanoma) | TGI (SNB-75 CNS) | TGI (K-562 leukemia) | TGI (NCI-H226 lung) | TGI (SF-268 CNS) | TGI (NCI/ADR-RES ovarian)
O=C1NC2(CCN(CCc3ccccc3)CC2)Oc2ccccc21 | > 100 µM | > 100 µM | > 100 µM | > 100 µM | > 100 µM | > 100 µM | > 100 µM | > 100 µM | > 100 µM | > 100 µM | > 100 µM | 49.9 µM | > 100 µM | > 100 µM | > 100 µM | > 100 µM | > 100 µM
COc1ccc(C(SCCO)(c2ccccc2)c2ccc(OC)cc2)cc1 | 49.1 µM | 35.6 µM | 42 µM | 38.1 µM | 14.8 µM | 43 µM | 27.3 µM | 47.2 µM | 31.4 µM | 18.5 µM | 19 µM | 23.1 µM | 16.8 µM | > 72.9 µM | 28.6 µM | 26.8 µM | 34.7 µM
N#C/C(N)=C(\C#N)NC=NCCO | > 100 µM | > 100 µM | > 100 µM | > 100 µM | > 100 µM | > 100 µM | > 100 µM | > 100 µM | > 100 µM | > 100 µM | > 100 µM | > 100 µM | > 100 µM | > 100 µM | > 100 µM | > 100 µM | > 100 µM
C=CCNC(=S)N/C=C(\C#N)C(N)=O | > 100 µM | > 100 µM | > 100 µM | > 100 µM | > 100 µM | > 100 µM | > 100 µM | > 100 µM | > 100 µM | > 100 µM | > 100 µM | > 100 µM | > 100 µM | > 100 µM | > 100 µM | > 100 µM | > 100 µM
O=C1C(Br)=C(Br)C(=O)c2ccc(=O)ccc21 | 32.7 µM | 42.7 µM | > 79.2 µM | 43.1 µM | 61.4 µM | 50.8 µM | > 100 µM | 13.7 µM | 37.4 µM | 37.4 µM | 50.9 µM | 32.7 µM | > 100 µM | > 61.9 µM | > 100 µM | > 77 µM | 53.3 µM
Cc1cn(C2OC(CO[Si](C)(C)C(C)(C)C)C(N(C)O[Si](C)(C)C(C)(C)C)C2[Se]c2ccccc2)c(=O)[nH]c1=O (stereo not drawn) | 8.58 µM | > 100 µM | 43.1 µM | 24.6 µM | 24.5 µM | 24.6 µM | 49.5 µM | > 100 µM | 29.4 µM | 25.4 µM | 26 µM | 50.8 µM | 21.4 µM | > 100 µM | 21.7 µM | 10.2 µM | 58 µM
O=c1[nH]c(=O)c2c3n(cc2[nH]1)CCCCC3 | > 100 µM |  | > 100 µM | > 100 µM | > 100 µM | > 100 µM | > 100 µM | > 100 µM | > 100 µM | > 100 µM | > 100 µM | > 100 µM | > 100 µM | > 100 µM | > 100 µM | > 100 µM | > 100 µM

— PubChem BioAssay (NCI)
